The values that follow come from US20080319375A1, “Materials, Methods, and Systems for Cavitation-mediated Ultrasonic Drug Delivery in vivo” (Biovaluation & Analysis, Inc., priority 2007, published 2008).

A short description of the series: Micropipette aspiration of polymersome membranes. Format: physicochemical. An excerpt: Thermal undulations of the quasi-spherical polymersome membranes provide an immediate indication of membrane softness. […] The micromanipulations are done with micropipette systems, as described above, and analogous to those described by Longo et al. (1997) and by Discher et al. (1994).
Analogous to a lipid bilayer, at low but increasing aspiration pressures, the thermally undulating polymersome membrane is progressively smoothed, increasing the projected area logarithmically with tension, t. From the slope of this increase (i.e., in tension units of mN/m) versus the fractional change, α, in vesicle area, the bending modulus, Kb, is calculated (see, e.g., Evans et al., 1990) with the following equation:
Kb≅kBT ln(t)/(8απ)+constant Equation 3 […]
Despite the comparative toughness of the polymersome membrane, a core “cavitation pressure,” Pc, may be readily estimated as pc=tc/d (5) yielding a value of pc=−25 atm. […] Bulk liquids such as water and light organics, are commonly reported to have measured tensile strengths of such a magnitude as may be generically estimated from a ratio of nominal interfacial tensions to molecular dimensions (i.e., ˜γ/d).

Turning to `CCCCCCCC/C=C\CCCCCCCC(=O)O[C@H](COC(=O)CCCCCCCCCCCCCCCCC)COP(=O)([O-])OCC[N+](C)(C)C` [SOPC, 1-stearoyl-2-oleoyl phosphatidylcholine], the “area expansion modulus, Ka” value is reported as roughly 180 mN/m.
